Source: US20240270821A1, “GIP/GLP1/GCG TRI-RECEPTOR AGONISTS AND USES THEREOF” (priority 2023, published 2024)
Where two headings read alike, the source gives them in different places. Starred links: 1 amine or outer side, 2 acyl side, 3 side chain; linkers in the order of their positions; H or OH if unused. Non-standard residues stand in square brackets, D forms with d. Groups on a side chain read outwards from the residue. No end group written: not given here. *: point of attachment. C18 diacid = O=C(O)CCCCCCCCCCCCCCCCC(=O)*; αMePhe(2-F) = C[C@](N)(Cc1ccccc1F)C(=O)O; γGlu = O=C(O)[C@H](CCC(=O)[*:2])N[*:1]; αMeY = C[C@](N)(Cc1ccc(O)cc1)C(=O)O; 4Pal = N[C@@H](Cc1ccncc1)C(=O)O; αMeL = CC(C)C[C@](C)(N)C(=O)O; Orn = NCCC[C@H](N)C(=O)O; AEEA = NCCOCCOCC(=O)O; Aib = CC(C)(N)C(=O)O

Assays:
hGIPR [1] = target: T1, hGIPR (Homo sapiens, UniProt P48546); assay: Functional cAMP activity in the presence of 1% HSA; assay type: cell-based; conditions: read-out: cAMP Rel EC50, hGIPR
T1 sequence (P48546 22-466): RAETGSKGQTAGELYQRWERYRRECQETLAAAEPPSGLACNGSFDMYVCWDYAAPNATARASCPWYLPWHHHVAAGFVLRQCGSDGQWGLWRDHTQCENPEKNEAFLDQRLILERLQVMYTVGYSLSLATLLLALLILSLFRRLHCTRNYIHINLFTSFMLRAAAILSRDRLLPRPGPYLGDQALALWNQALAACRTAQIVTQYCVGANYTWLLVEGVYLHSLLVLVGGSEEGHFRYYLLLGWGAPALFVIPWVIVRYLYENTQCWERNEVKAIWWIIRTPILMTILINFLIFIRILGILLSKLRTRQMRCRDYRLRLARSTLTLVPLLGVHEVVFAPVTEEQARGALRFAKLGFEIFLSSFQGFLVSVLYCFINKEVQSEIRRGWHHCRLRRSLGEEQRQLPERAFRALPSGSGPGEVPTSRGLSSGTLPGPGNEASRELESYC

hGLP-1R [2] = target: T2, hGLP-1R (Homo sapiens, UniProt P43220); assay: Functional cAMP activity in the presence of 1% HSA; assay type: cell-based; conditions: read-out: cAMP Rel EC50, hGLP-1R
human GcgR = human GcgR (Homo sapiens, UniProt P47871); assay: Functional cAMP activity in the presence of 1% HSA; assay type: cell-based; conditions: read-out: cAMP Rel EC50, hGcgR
hGIPR [3] = target: T1, hGIPR; assay: Functional cAMP activation in the presence of 0.1% casein (no HSA); assay type: cell-based; conditions: read-out: Relative cAMP EC50, hGIPR;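 on Relative cAMP EC50, hGIPR: intracellular cAMP rise after 30 min at 37 °C read by HTRF against a standard curve, scaled between buffer alone (0%) and top control ligand concentration (100%), four-parameter fit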;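 on Relative cAMP EC50, hGLP-1R: intracellular cAMP rise after 30 min at 37 °C read by HTRF, normalized between buffer only (0%) and maximal control ligand (100%), four-parameter variable-slope fit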;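 on Relative cAMP EC50, hGcgR: intracellular cAMP rise after 30 min at 37 °C, read by HTRF against a cAMP standard curve, scaled from buffer only (0%) to maximal control ligand response (100%)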
hGLP-1R [4] = target: T2, hGLP-1R; assay: as above; assay type: cell-based; conditions: read-out: Relative cAMP EC50, hGLP-1R
hGcgR = hGcgR (Homo sapiens, UniProt P47871); assay: as above; assay type: cell-based; conditions: read-out: Relative cAMP EC50, hGcgR;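 further: intracellular cAMP rise after 30 min at 37 °C, read by HTRF against a cAMP standard curve, scaled from buffer only (0%) to maximal control ligand response (100%)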
human GLP1-R = human GLP1-R (Homo sapiens, UniProt P43220); assay: GLP1-R internalization assay in HEK293 cells; assay type: cell-based; conditions: for EC50: HEK293 cells expressing SNAP-GLP-1R, read-out: GLP1R Internalization EC50; for Internalization % TOP: normalized to maximum concentration of GLP-1 (100%)
[5] = tested on: Intestinal organoid from Göttingen minipig jejunum tissue, 2D monolayer; assay: Cell based in vitro permeability (Papp) assay; assay type: in vitro ADME
Protocol: Intestinal organoid from Göttingen minipig jejunum tissue and its 2D monolayer are generated using the protocol previously described ([…]-Thiele, […].; Wells, J. M., Optimized procedures for generating an enhanced, near physiological 2D culture system from porcine intestinal organoids. […] After 7 days of culture, organoids are dissociated into single cells by TrypLE (GIbco), and the single cell suspension is added in 24-well transparent transwell inserts (0.3 cm^2, Falcon, BD). […] Samples from the basal compartment are collected at 20 min in the presence of C10. Peptide concentrations in the apical and basal compartments are measured by LC/MS, and the apparent permeability coefficient (Papp) is calculated as previously described (Twarog, C.; Liu, K.; O'Brien, P. J.; Dawson, […] head-to-head Caco-2 assay comparison of the mechanisms of action of the intestinal permeation enhancers: SNAC and sodium caprate (C10).

[6] = in the presence of 0.1% casein (no HSA), geometric mean

Chain of human GLP1-R (P43220 24-463): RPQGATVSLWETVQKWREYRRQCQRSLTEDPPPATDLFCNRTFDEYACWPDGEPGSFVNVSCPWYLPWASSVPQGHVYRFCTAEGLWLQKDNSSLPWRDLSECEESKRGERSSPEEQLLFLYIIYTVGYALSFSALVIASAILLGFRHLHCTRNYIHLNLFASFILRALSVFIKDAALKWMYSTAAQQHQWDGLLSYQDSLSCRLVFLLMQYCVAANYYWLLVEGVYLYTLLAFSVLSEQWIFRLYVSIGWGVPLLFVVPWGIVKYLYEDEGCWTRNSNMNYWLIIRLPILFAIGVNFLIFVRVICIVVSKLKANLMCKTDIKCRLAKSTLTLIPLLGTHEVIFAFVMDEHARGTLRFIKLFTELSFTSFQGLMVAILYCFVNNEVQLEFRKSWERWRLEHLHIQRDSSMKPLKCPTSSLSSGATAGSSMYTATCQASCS
T2 sequence (P43220 24-463): as above
Chain of hGcgR (P47871 26-477): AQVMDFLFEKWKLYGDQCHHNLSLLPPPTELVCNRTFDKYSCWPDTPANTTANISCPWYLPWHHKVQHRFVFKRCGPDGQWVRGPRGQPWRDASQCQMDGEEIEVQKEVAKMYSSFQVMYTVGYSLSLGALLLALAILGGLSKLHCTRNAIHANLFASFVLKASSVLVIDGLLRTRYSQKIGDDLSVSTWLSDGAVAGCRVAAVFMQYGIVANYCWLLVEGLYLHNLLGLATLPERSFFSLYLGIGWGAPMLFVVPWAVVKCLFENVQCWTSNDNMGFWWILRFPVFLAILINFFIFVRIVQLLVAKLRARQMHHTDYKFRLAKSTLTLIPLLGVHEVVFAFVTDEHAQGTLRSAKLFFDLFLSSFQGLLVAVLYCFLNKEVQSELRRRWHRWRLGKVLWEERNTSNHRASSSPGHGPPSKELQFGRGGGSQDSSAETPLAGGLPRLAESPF
Chain of human GcgR (P47871 26-477): as above

| Compound | EC50 (hGIPR [1]) [nM] | EC50 (hGLP-1R [2]) [nM] | EC50 (human GcgR) [nM] | EC50 (hGIPR [3]; [6]) [nM] | EC50 (hGLP-1R [4]; [6]) [nM] | EC50 (hGcgR; [6]) [nM] | EC50 (human GLP1-R) [nM] | Internalization % TOP (human GLP1-R) [%] | Relative Papp (Compared to internal standard) [5] | EC50 (hGIPR [3]) [nM] | EC50 (hGLP-1R [4]) [nM] | EC50 (hGcgR) [nM] |
| --- | --- | --- | --- | --- | --- | --- | --- | --- | --- | --- | --- | --- |
| CC[C@H](C)[C@H](NC(=O)[C@H](Cc1ccccc1)NC(=O)[C@H](C)NC(=O)C(C)(C)NC(=O)[C@H](CCC(N)=O)NC(=O)[C@H](C)NC(=O)[C@H](CCCCNC(=O)COCCOCCNC(=O)CC[C@H](NC(=O)CCCCCCCCCCCCCCCCC(=O)O)C(=O)O)NC(=O)[C@H](CCCCN)NC(=O)[C@H](CC(=O)O)NC(=O)[C@H](CC(C)C)NC(=O)[C@](C)(CC(C)C)NC(=O)[C@H](CCCN)NC(=O)[C@H](CO)NC(=O)[C@H](Cc1ccccc1)NC(=O)[C@H](CC(=O)O)NC(=O)[C@H](CO)NC(=O)[C@@H](NC(=O)[C@H](Cc1ccccc1)NC(=O)[C@@H](NC(=O)CNC(=O)[C@H](CCC(N)=O)NC(=O)C(C)(C)NC(=O)[C@@H](N)Cc1ccc(O)cc1)[C@@H](C)O)[C@@H](C)O)C(=O)N[C@@H](CCC(=O)O)C(=O)N[C@@H](Cc1ccc(O)cc1)C(=O)N[C@@H](CC(C)C)C(=O)N[C@@H](CC(C)C)C(=O)N[C@@H](CCC(=O)O)C(=O)N[C@H](C)C(=O)NCC(=O)N1CCC[C@H]1C(=O)N[C@@H](CO)C(=O)N[C@@H](CO)C(=O)NCC(=O)N[C@@H](C)C(=O)N1CCC[C@H]1C(=O)N1CCC[C@H]1C(=O)N1CCC[C@H]1C(=O)N[C@@H](CO)C(=O)NCC(=O)N[C@H](C(N)=O)[C@@H](C)O [Example 210] | 23.5 | 264 | 501 | 0.153 | 1.44 | 2.81 | 80.2 | 49.2 | 0.06 |  |  |  |
| CC[C@H](C)[C@H](NC(=O)[C@H](Cc1ccccc1)NC(=O)[C@H](C)NC(=O)C(C)(C)NC(=O)[C@H](CCC(N)=O)NC(=O)[C@H](C)NC(=O)[C@H](CCCCNC(=O)COCCOCCNC(=O)CC[C@H](NC(=O)CCCCCCCCCCCCCCCCC(=O)O)C(=O)O)NC(=O)[C@H](CCCCN)NC(=O)[C@H](CC(=O)O)NC(=O)[C@H](CC(C)C)NC(=O)[C@](C)(CC(C)C)NC(=O)[C@H](CCCN)NC(=O)[C@H](CO)NC(=O)[C@H](Cc1ccccc1)NC(=O)[C@H](CC(=O)O)NC(=O)[C@H](CO)NC(=O)[C@@H](NC(=O)[C@H](Cc1ccccc1)NC(=O)[C@@H](NC(=O)CNC(=O)[C@H](CCC(N)=O)NC(=O)C(C)(C)NC(=O)[C@@H](N)Cc1ccc(O)cc1)[C@@H](C)O)[C@@H](C)O)C(=O)N[C@@H](CCC(=O)O)C(=O)N[C@@H](Cc1ccc(O)cc1)C(=O)N[C@@H](CC(C)C)C(=O)N[C@@H](CC(C)C)C(=O)N[C@@H](CCC(=O)O)C(=O)N[C@H](C)C(=O)NCC(=O)N[C@@H](CCCCNC(C)=O)C(=O)N[C@@H](CO)C(=O)N[C@@H](CO)C(=O)NCC(=O)N[C@@H](C)C(=O)N1CCC[C@H]1C(=O)N1CCC[C@H]1C(=O)N1CCC[C@H]1C(=O)N[C@@H](CO)C(=O)NCC(=O)N[C@@H](CCC(=O)O)C(N)=O [Example 208] |  | 336 | 578 | 0.159 | 3.72 | 2.69 | 55.7 | 49.6 | 0.29 |  |  |  |
| CC[C@H](C)[C@H](NC(=O)[C@H](Cc1ccccc1)NC(=O)[C@H](CCCN)NC(=O)C(C)(C)NC(=O)[C@H](CCC(N)=O)NC(=O)[C@H](C)NC(=O)[C@H](CCCCNC(=O)[C@@H](CCC(=O)O)NC(=O)CC[C@H](NC(=O)CCCCCCCCCCCCCCCCC(=O)O)C(=O)O)NC(=O)[C@H](CCCN)NC(=O)[C@H](CC(=O)O)NC(=O)[C@H](CC(C)C)NC(=O)[C@](C)(CC(C)C)NC(=O)[C@@H](NC(=O)[C@](C)(CO)NC(=O)[C@H](Cc1ccncc1)NC(=O)[C@H](CC(=O)O)NC(=O)[C@H](CO)NC(=O)[C@@H](NC(=O)[C@](C)(Cc1ccccc1F)NC(=O)[C@@H](NC(=O)CNC(=O)[C@H](CCC(N)=O)NC(=O)C(C)(C)NC(=O)[C@@H](N)Cc1ccc(O)cc1)[C@@H](C)O)[C@@H](C)O)[C@@H](C)CC)C(=O)N[C@H](CCC(=O)O)C(=O)N[C@@](C)(Cc1ccc(O)cc1)C(=O)N[C@@H](CC(C)C)C(=O)N[C@@H](CCC(N)=O)C(=O)N[C@@H](CCC(=O)O)C(=O)NCC(=O)NCC(=O)N1CCC[C@H]1C(=O)N[C@@H](CO)C(=O)N[C@@H](CO)C(=O)NCC(=O)N[C@@H](CCC(=O)O)C(=O)N1CCC[C@H]1C(=O)N1CCC[C@H]1C(=O)N1CCC[C@H]1C(=O)N[C@@H](CCC(=O)O)C(=O)NCC(=O)N[C@H](C(=O)N[C@@H](CCC(=O)O)C(=O)N[C@@H](CCC(=O)O)C(N)=O)[C@@H](C)O [Example 595] | 1.73 | 30.4 | 353 |  |  |  |  |  | 0.55 | 0.0338 | 0.53 | 5.06 |
| CC[C@H](C)[C@H](NC(=O)[C@H](Cc1ccccc1)NC(=O)[C@H](C)NC(=O)C(C)(C)NC(=O)[C@H](CCC(N)=O)NC(=O)[C@H](C)NC(=O)[C@H](CCCCNC(=O)COCCOCCNC(=O)CC[C@H](NC(=O)CCCCCCCCCCCCCCCCC(=O)O)C(=O)O)NC(=O)[C@H](CCCCN)NC(=O)[C@H](CC(=O)O)NC(=O)[C@H](CC(C)C)NC(=O)[C@](C)(CC(C)C)NC(=O)[C@H](CCCN)NC(=O)[C@H](CO)NC(=O)[C@H](Cc1ccccc1)NC(=O)[C@H](CC(=O)O)NC(=O)[C@H](CO)NC(=O)[C@@H](NC(=O)[C@H](Cc1ccccc1)NC(=O)[C@@H](NC(=O)CNC(=O)[C@H](CCC(N)=O)NC(=O)C(C)(C)NC(=O)[C@@H](N)Cc1ccc(O)cc1)[C@@H](C)O)[C@@H](C)O)C(=O)N[C@@H](CCC(=O)O)C(=O)N[C@@H](Cc1c[nH]c2ccccc12)C(=O)N[C@@H](CC(C)C)C(=O)N[C@@H](CC(C)C)C(=O)N[C@@H](CCC(=O)O)C(=O)NCC(=O)NCC(=O)N1CCC[C@H]1C(=O)N[C@@H](CO)C(=O)N[C@@H](CO)C(=O)NCC(=O)N[C@@H](C)C(=O)N1CCC[C@H]1C(=O)N1CCC[C@H]1C(=O)N1CCC[C@H]1C(=O)N[C@@H](Cc1c[nH]cn1)C(=O)NCC(=O)N[C@@H](CO)C(N)=O [Example 249] | 22.5 | 256 | 604 | 0.173 |  | 5.55 | 86.2 | 34.8 | 0.04 |  |  |  |
| H-Y[Aib]QGTFTSDFS[Orn][αMeL]LDKK([γGlu-γGlu-C18 diacid])AQ[Aib]AFIEYLLEGGPSSGAPPPGGS-NH2 [Example 198] | 38.8 | 761 | 1300 | 0.182 | 4.36 | 6.85 |  |  | 0.12 |  |  |  |
| H-Y[Aib]QGTFTSDFS[Orn][αMeL]LDKK([AEEA-AEEA-γGlu-C18 diacid])AQ[Aib]AFIEYLLE[Aib]GHSSGAPPPSGT-NH2 [Example 182] | 9.95 | 398 | 1480 | 0.0781 | 4.8 | 5.33 |  |  | 0.12 |  |  |  |
| Y[Aib]QGTFTSDFS[Orn][αMeL]LDKK([AEEA-γGlu-C18 diacid])AQ[Aib]AFIEYLLE[dA]GPSSGEPPPSGE-NH2 [Example 135] | 23.4 | 472 | 557 | 0.246 | 3.3 | 2.53 |  |  | 0.04 |  |  |  |
| H-Y[Aib]QGT[αMePhe(2-F)]TSD[4Pal]SILLDKK([γGlu-γGlu-C18 diacid])AQ[Aib]AFIE[αMeY]LEEGGPSSGAPPPSGSGE-NH2 [Example 666] | 1.39 | 32.3 | 224 |  |  |  |  |  | 0.85 | 0.0203 | 0.337 | 2 |
